Test results from article PMC8272148, “Antioxidant Serine-(NSAID) Hybrids with Anti-Inflammatory and Hypolipidemic Potency” (Molecules, 2021).
Several values for one entry are separate records, joined by “and”; a condition that tells them apart may be missing. Identical values can stand only once. Marks after values point to notes of the source that are not given here.

Assays:
[1] = test system: rat hepatic microsomal membrane lipid peroxidation; experiment: Inhibition of rat hepatic microsomal membrane lipid peroxidation (ferrous ascorbate induced, TBA reactive material); format: biochemical; details: after 45 min of incubation; for IC50: rat hepatic microsomal membrane; for Inhibition of Lipid Peroxidation, percent at 1 mM: 1 mM compound
Method: The peroxidation of the heat-inactivated rat hepatic microsomal fraction was induced by ferrous ascorbate. The studied compounds, in dimethylsulfoxide, were added at concentrations of 1 μM–1 mM. Aliquots were taken from the incubation mixture (37 °C) for 45 min. Lipid peroxidation was assessed spectrophotometrically (535/600 nm) as a 2-thiobarbituric acid reactive material. The incubation mixture and solvents were found not to interfere with the assay.

[2] = Interaction with the stable radical DPPH; details: DPPH 200 μM, after 30 min
Method: Compounds, dissolved in absolute ethanol, at concentrations of 25–200 μM, were added to an equal volume of an ethanolic solution of DPPH (final concentration 200 μM) at room temperature (22 ± 2 °C). Absorbance (517 nm) was recorded after 30 min [26]. For the calculation of percent interaction, the residual absorbance of DPPH Ai (at a fixed concentration) after its interaction with the examined compounds (at various concentrations) was compared with the control absorbance Ao, without the addition of compounds, following the equation: (1) Percent interaction=100−(Ai/Ao×100)

[3] = test system: carrageenan-induced rat paw edema; experiment: Carrageenan-induced rat paw edema; format: in vivo, Wistar rats; details: ip, 0.15 mmol/kg i.p., 3.5 h after carrageenan, vs controls, read-out: % Edema Reduction
Method: An amount of 0.1 mL of an aqueous carrageenan solution (1% w/v) was injected into the hind paw of adult Wistar rats (6 rats were used for each compound). The tested compounds (in water with a few drops of Tween 80) were administered i.p. (0.15 mmol/kg) 5 min before the carrageenan administration. The produced edema, after 3.5 h, was estimated as paw weight increase.

soybean lipoxygenase 1-B = biological target: T1, soybean lipoxygenase 1-B (Glycine max, UniProt P08170); experiment: In vitro inhibition of soybean lipoxygenase; format: biochemical; details: linoleic acid (100 μM) as substrate, after 7 min of incubation; for inhibition at 100 µM: 100 μM compound, read-out: Lipoxygenase percent inhibition at 100 μM
T1 sequence (P08170 1-839): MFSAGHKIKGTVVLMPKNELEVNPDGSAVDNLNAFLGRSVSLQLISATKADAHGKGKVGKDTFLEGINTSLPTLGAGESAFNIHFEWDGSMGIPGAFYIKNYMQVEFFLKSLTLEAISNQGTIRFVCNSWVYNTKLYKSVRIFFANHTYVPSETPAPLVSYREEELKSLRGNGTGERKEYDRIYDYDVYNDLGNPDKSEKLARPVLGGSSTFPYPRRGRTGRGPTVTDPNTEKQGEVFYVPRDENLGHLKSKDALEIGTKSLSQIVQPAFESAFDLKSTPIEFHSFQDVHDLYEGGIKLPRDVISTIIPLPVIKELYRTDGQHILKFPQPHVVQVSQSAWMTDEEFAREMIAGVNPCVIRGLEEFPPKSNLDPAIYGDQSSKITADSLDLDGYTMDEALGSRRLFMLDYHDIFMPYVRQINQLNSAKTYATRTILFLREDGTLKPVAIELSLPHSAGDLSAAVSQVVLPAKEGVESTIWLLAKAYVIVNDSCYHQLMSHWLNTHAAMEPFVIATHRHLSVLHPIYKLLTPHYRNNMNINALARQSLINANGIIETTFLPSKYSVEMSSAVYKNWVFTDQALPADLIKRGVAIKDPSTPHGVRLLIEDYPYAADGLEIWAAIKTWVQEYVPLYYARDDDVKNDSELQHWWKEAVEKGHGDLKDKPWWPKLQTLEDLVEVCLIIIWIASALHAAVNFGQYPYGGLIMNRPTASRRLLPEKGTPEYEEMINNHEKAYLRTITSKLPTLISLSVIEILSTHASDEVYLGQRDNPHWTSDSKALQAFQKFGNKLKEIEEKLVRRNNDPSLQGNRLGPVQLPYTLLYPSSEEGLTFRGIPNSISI
Method: The reaction mixture contained the test compounds, dissolved in absolute ethanol (0.1 mL) at various concentrations, or the solvent (control, 0.1 mL), soybean lipoxygenase dissolved in 0.9% NaCl solution (250 u/mL, 0.2 mL) and sodium linoleate (100 μM) in Tris–HCl buffer, pH 9.0 (2.7 mL). The reaction was followed for 7 min at 28 °C, recording the absorbance of a conjugated diene structure at 234 nm, due to the formation of 13-hydroperoxy-linoleic acid. […] For the estimation of the type of inhibition, the above experiments were repeated, using sodium linoleate at 1 mM, which is higher than the saturating substrate concentration.

[4] = test system: Triton WR1339 (tyloxapol)-induced hyperlipidemia; experiment: Triton WR1339 (tyloxapol)-induced hyperlipidemia in rats; format: in vivo, Wistar rats; details: 150 μmol/kg i.p., rat plasma, 24 h, tyloxapol 200 mg/kg i.p.
Method: The examined compounds (0.15 mmol/kg) were administered i.p. one hour later. Blood was taken from the aorta after 24 h, for the determination of plasma total cholesterol, LDL cholesterol and triglyceride concentration, using commercial kits.

Row | IC50 [1] | inhibition at 100 µM (soybean lipoxygenase 1-B) | IC50 (soybean lipoxygenase 1-B) | SMILES | Percent Interaction with DPPH ([2]; compound 25 μM) | Percent Interaction with DPPH ([2]; compound 50 μM) | Percent Interaction with DPPH ([2]; compound 100 μM) | Percent Interaction with DPPH ([2]; compound 200 μM) | inhibition in vivo at 150 µmol/kg [3] | Inhibition of Lipid Peroxidation, percent at 1 mM [1] | % Reduction LDL-C (LDL cholesterol) [4] | % Reduction TC (total cholesterol) [4] | % Reduction TG (triglycerides) [4] | Inhibition of Lipid Peroxidation, percent at 500 μM ([1]; 500 μM compound) | Inhibition of Lipid Peroxidation, percent at 50 μM ([1]; 50 μM compound)
1 | 150 µM | 30% | – | Cc1c(C)c2c(c(C)c1O)CCC(C)(C(=O)NC(CO)C(=O)O)O2 (centres unmarked) [Compound 1, 3-Hydroxy-2-(6-hydroxy-2,5,7,8-tetramethylchroman-2-carboxamido)propanoic acid] | 19.6% | 48.0% | 87.0% | 90.4% | 43% | – | – | – | – | – | –
2 | – | 15% | – | CC(C)(C)c1cc(C(=O)NC(CO)C(=O)O)cc(C(C)(C)C)c1O (centres unmarked) [Compound 2, 2-(3,5-Di-tert-butyl-4-hydroxybenzamido)-3-hydroxypropanoic acid] | – | – | – | lower than 10% | 44% | 40%/1 mM | – | – | – | – | –
3 | 80 µM | 20% | – | CC(C)(C)c1cc(/C=C/C(=O)NC(CO)C(=O)O)cc(C(C)(C)C)c1O (centres unmarked) [Compound 3, (E)-2-(3-(3,5-di-tert-butyl-4-hydroxyphenyl)acrylamido)-3-hydroxypropanoic acid] | 12.9% | 17.4% | 35.9% | 82.3% | 27% | – | – | – | – | – | –
4 | 7.3 µM | 15% | – | CCOC(=O)C(CO)NC(=O)C1(C)CCc2c(C)c(O)c(C)c(C)c2O1 (centres unmarked) [Compound 4, Ethyl 3-hydroxy-2-(6-hydroxy-2,5,7,8-tetramethylchroman-2-carboxamido)propanoate] | 24.5% | 53.3% | 88.2% | 92.4% | 37% | – | 60.2 * % | 46.2 ** % | 53.4 ** % | – | –
5 | 163 µM | – | 200 µM | CCOC(=O)C(CO)NC(=O)c1cc(C(C)(C)C)c(O)c(C(C)(C)C)c1 (centres unmarked) [Compound 5, Ethyl 2-(3,5-di-tert-butyl-4-hydroxybenzamido)-3-hydroxypropanoate] | – | – | – | lower than 10% | 47% | – | 66.0 ** % | 52.3 ** % | 62.0 ** % | – | –
6 | 22 µM | – | 156 µM | CCOC(=O)C(CO)NC(=O)/C=C/c1cc(C(C)(C)C)c(O)c(C(C)(C)C)c1 (centres unmarked) [Compound 6, (E)-ethyl 2-(3-(3,5-di-tert-butyl-4-hydroxyphenyl)acrylamido)-3-hydroxypropanoate] | 17.9% | 21.2% | 48.6% | 88.7% | 44% | – | – | – | – | – | –
7 | 3.4 µM | < 15% | – | CCOC(=O)C(COC(=O)C(C)c1ccc(CC(C)C)cc1)NC(=O)C1(C)CCc2c(C)c(O)c(C)c(C)c2O1 (centres unmarked) [Compound 7, Ethyl 2-(6-hydroxy-2,5,7,8-tetramethylchroman-2-carboxamido)-3-((2-(4-isobutylphenyl)propanoyl)oxy)propanoate] | 22.6% | 54.2% | 89.0% | 91.6% | 45% | – | – | – | – | – | –
8 | – | – | 13 µM | CCOC(=O)C(COC(=O)C(C)c1ccc(CC(C)C)cc1)NC(=O)c1cc(C(C)(C)C)c(O)c(C(C)(C)C)c1 (centres unmarked) [Compound 8, Ehyl 2-(3,5-di-tert-butyl-4-hydroxybenzamido)-3-((2-(4-isobutylphenyl)propanoyl)oxy)propanoate] | – | – | 4.0% | 18.7% | 48% | – | – | – | – | 30%/500 μM | –
9 | – | – | 80 µM | CCOC(=O)C(COC(=O)C(C)c1ccc(CC(C)C)cc1)NC(=O)/C=C/c1cc(C(C)(C)C)c(O)c(C(C)(C)C)c1 (centres unmarked) [Compound 9, (E)-ethyl 2-(3-(3,5-di-tert-butyl-4-hydroxyphenyl)acrylamido)-3-((2-(4-isobutylphenyl)propanoyl)oxy)propanoate] | 15.5% | 31.8% | 58.0% | 90.9% | 52% | – | 70% and 70.1 * % | 61% and 61.2 ** % | 52% and 52.1 ** % | – | 20%/50 μM
10 | 2.8 µM | 23% | – | CCOC(=O)C(COC(=O)C(C)c1cccc(C(=O)c2ccccc2)c1)NC(=O)C1(C)CCc2c(C)c(O)c(C)c(C)c2O1 (centres unmarked) [Compound 10, Ethyl 3-((2-(3-benzoylphenyl)propanoyl)oxy)-2-(6-hydroxy-2,5,7,8-tetramethylchroman-2-carboxamido)propanoate] | 12.4% | 30.1% | 64.6% | 87.0% | 42% | – | – | – | – | – | –
11 | – | – | 86 µM | CCOC(=O)C(COC(=O)C(C)c1cccc(C(=O)c2ccccc2)c1)NC(=O)c1cc(C(C)(C)C)c(O)c(C(C)(C)C)c1 (centres unmarked) [Compound 11, Ethyl 3-((2-(3-benzoylphenyl)propanoyl)oxy)-2-(3,5-di-tert-butyl-4-hydroxybenzamido)propanoate] | – | – | – | lower than 10% | 67% | 30%/1 mM | 51.2 ** % | 57.6 ** % | 44.5 * % | – | –
12 | – | – | – | CC(C)Cc1ccc(C(C)C(=O)O)cc1 (centres unmarked) [Ibuprofen, ibuprofen, reference compound] | – | – | – | – | 36% | – | – | – | – | – | –
13 | 25 µM | – | > 300 µM | Cc1c(C)c2c(c(C)c1O)CCC(C)(C(=O)O)O2 (centres unmarked) [Trolox, 6-hydroxy-2,5,7,8-tetramethylchroman-2-carboxylic acid, reference compound] | 22.0% | 38.0% | 90.0% | 92.0% | – | – | – | – | – | – | –

Row | SMILES | IC50 [1] | inhibition at 100 µM (soybean lipoxygenase 1-B) | IC50 (soybean lipoxygenase 1-B) | Percent Interaction with DPPH ([2]; compound 25 μM) | Percent Interaction with DPPH ([2]; compound 50 μM) | Percent Interaction with DPPH ([2]; compound 100 μM) | Percent Interaction with DPPH ([2]; compound 200 μM) | inhibition in vivo at 150 µmol/kg [3] | Inhibition of Lipid Peroxidation, percent at 1 mM [1] | % Reduction LDL-C (LDL cholesterol) [4] | % Reduction TC (total cholesterol) [4] | % Reduction TG (triglycerides) [4] | Inhibition of Lipid Peroxidation, percent at 500 μM ([1]; 500 μM compound) | Inhibition of Lipid Peroxidation, percent at 50 μM ([1]; 50 μM compound)
14 | CC(C(=O)O)c1cccc(C(=O)c2ccccc2)c1 (centres unmarked) [Ketoprofen, ketoprofen, reference compound] | – | – | 220 µM | – | – | – | – | – | – | – | – | – | – | –
